This is an account of results in PubChem BioAssay (NCI).

What all share (assay): inhibition of tumour cell growth, NCI panel, 48 h
Experiment [1] concerns SF-539 CNS.
Experiment [2] concerns HT29 colon.
In experiment [3] the test system is MALME-3M melanoma.
Experiment [4] concerns CAKI-1 renal.
The subject of experiment [5] is 786-0 renal.
The subject of experiment [6] is KM12 colon.
The subject of experiment [7] is NCI-H226 lung.
Experiment [8] has as its system IGROV1 ovarian.
Experiment [9] concerns HCT-15 colon.

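Assay format: 96-well plates, 48-hour exposure. The concentration for 50% growth inhibition is given as GI50. TGI denotes the concentration required for complete inhibition of growth.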 A value given as a limit tells only on which side of the number the result lay.

Turning to `Cc1cc(C)nc(NS(=O)(=O)c2ccc(Nc3c4ccccc4nc4c(C(=O)Nc5ccc(S(=O)(=O)N=C(N)N)cc5)ccc(Cl)c34)cc2)n1`, the TGI in [1] is 45.6 µM; in experiment [2], above 100 µM; in experiment [3], above 100 µM; in [4], above 100 µM; in experiment [5], above 100 µM; in experiment [6] it was above 100 µM. This compound returned a TGI in experiment [7] of 58.1 µM.

`O=C(O)CSc1n[nH]c(-c2ccc(O)cc2)n1`: the TGI in experiment [1], in experiment [8], in [2], in experiment [3], in [4] and in [5] was above 100 µM in each case. Also, the TGI in [9], in experiment [6] and in experiment [7] was above 100 µM throughout.

Consider `COc1ccc2cc(C(=O)/C=C/c3cc(OC)c(OC)c(OC)c3)ccc2c1`, for which the GI50 in [8] is 5.49 µM; in [2] it was 2.72 µM; in experiment [3] it was 11 µM; in experiment [4] it was 3.41 µM; in experiment [5], 7.61 µM; in experiment [9], 1.77 µM. Further, in [6], the GI50 was 2.3 µM. Further, the TGI in experiment [8] was 18.5 µM; in [2], 19.7 µM; in experiment [3], 25.8 µM; in experiment [4], 28.3 µM; in [5] it was 15.7 µM; in [9], above 50 µM. Besides, in experiment [6], the TGI was 35.7 µM.

As for `CC1OC(OCC2OC(Oc3c(-c4ccc(O)cc4)oc4cc(O)cc(O)c4c3=O)C(OC3OCC(O)(CO)C3O)C(O)C2O)C(O)C(O)C1O` (stereo unspecified), the TGI in experiment [1], in [8], in [2], in experiment [3], in experiment [4] and in [5] was above 100 µM each time. Further, the TGI in [9] was 53.2 µM; in experiment [6], above 100 µM; in [7], above 100 µM.

For the compound `Cc1cnc2c(C)ccc([N+](=O)[O-])c2c1NCCCN(C)C`, the TGI in experiment [1], in [8], in experiment [2], in [3], in [4] and in experiment [5] was above 100 µM each time. Moreover, the TGI in experiment [9], in experiment [6] and in experiment [7] was above 100 µM each time.

As to `CC[C@H](C)N(CCN)C(=O)c1cc2ccccc2c(-c2ccccc2Cl)n1`, the TGI in [1] is 6.5 µM; in experiment [8] it was 26.2 µM; in experiment [2], 20.5 µM; in [5], above 100 µM; in [9], 16.1 µM; in experiment [6], 29.6 µM. Also, the TGI in experiment [7] stood at 29.7 µM.

For the compound `O=C(c1ccccc1)C(C(=O)c1ccccc1)C1(O)C(=O)c2ccccc2C1=O`, the TGI in [1] is above 100 µM; in experiment [8] it was above 100 µM; in experiment [2] it was above 100 µM; in [3], 96.6 µM; in [5], above 100 µM; in [9], above 100 µM. Further, the TGI in [6] and in [7] was above 100 µM each time.

As for `CCOc1ccccc1NC(=O)C(=O)CC(=O)c1c(C)n([O-])c2ccccc2[n+]1=O`, the TGI in [1], in [8], in [2], in experiment [3], in [4] and in [5] was above 100 µM in each case. In addition, the TGI in [9], in experiment [6] and in experiment [7] was above 100 µM each time.

`O=C1CC(O)C=C1Nc1ccc(Cl)cc1` (stereo unspecified): the TGI in experiment [1], in [8], in experiment [2], in [3], in [4] and in experiment [5] was above 100 µM throughout. Besides, the TGI in experiment [6] was 39.2 µM; in experiment [7], above 100 µM.

Take `O=C1C(=O)N(C(=O)c2ccc(Cl)c(Cl)c2)c2ccccc21`: the TGI in [1], in experiment [8], in [2], in [5], in [6] and in experiment [7] was above 100 µM throughout.

For `O=C(O)c1c(-c2cccc3ccccc23)sc(-c2cccc3ccccc23)c1C(=O)O`, the TGI in [1], in experiment [8], in experiment [2], in experiment [3], in experiment [5] and in experiment [9] was above 100 µM throughout. Moreover, the TGI in [6] and in experiment [7] was above 100 µM in each case.

For the compound `Cn1c2c(c3ccccc31)CCN(CCCCN1CCc3c(n(C)c4ccccc34)C1=O)C2`, the TGI in [1], in [8], in experiment [2], in experiment [3], in experiment [4] and in [5] was above 100 µM throughout. In experiment [9], this compound registered a TGI above 100 µM.

For the compound `COc1ccc(-c2nc3sc(C)cn3c2/C=C/C(=O)c2cc(OC)c(OC)c(OC)c2)cc1`, the GI50 in experiment [1] was 4.28 µM; in experiment [8], 1.65 µM; in experiment [2], 3.95 µM; in experiment [4], 5.15 µM; in [5], 5.31 µM; in experiment [9], 3.35 µM. Also, the GI50 is 2.69 µM in experiment [6] and 4.12 µM in [7]. Also, the TGI in experiment [1] was above 100 µM; in experiment [8] it was 4.33 µM; in [2], above 100 µM; in experiment [4], above 100 µM; in experiment [5], above 100 µM; in experiment [9], above 100 µM. Moreover, the TGI is 6.39 µM in experiment [6] and above 100 µM in experiment [7].

On to `Cc1cc2c(c(C#N)c1C)NC(=O)CCC2=O`, for which the TGI in experiment [1], in [8], in [2], in experiment [4], in [5] and in [9] was above 100 µM throughout. Also, the TGI in [6] was above 100 µM.

For the compound `O=C(c1ccccc1)C(c1ccccc1)C1(O)C(=O)Nc2c(Cl)cc(Cl)cc21` (stereo unspecified), the TGI in experiment [2] was 58 µM; in [3] it was 32.7 µM; in [4], 40.1 µM; in experiment [5], 29.8 µM; in experiment [9], above 100 µM; in experiment [6] it was 82.8 µM. In [7], the TGI was 32.6 µM.
